Experimental data published in patent US6984649B1, “Pyridine derivatives” (Bayer Aktiengesellschaft, priority 2000, dated 2006).
Where a name gives a salt, the structure may show the parent alone.

What follows are molecules tested on A549 human lung epithelium cell line (assay: RANTES production in response to TNF-α from A549 cells). Conditions: A549 cells, 100 ng/ml TNF-α, read-out: Cellular activity grade (A549) (Cellular IC50).
Assay type: cell-based
Procedure, shortened: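 Cells (4×10^4/well) in D-MEM/10% FCS preincubated 1 h at 37 °C with compound in 1% DMSO, then stimulated with 100 ng/ml TNF-α for 24 h. Supernatant RANTES quantified by Eu-labelled sandwich immunoassay (time-resolved fluorescence, ex 340/em 615 nm) against recombinant human RANTES standard.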

Structure (SMILES)	IC50
N#Cc1c(C2CCCNC2)cc(-c2c(O)cccc2OCC2CCCO2)nc1N (stereo not drawn) [Example 2-81]	< 1000 nM

Same assay, conditions: Homo sapiens, A549, A549 cells, 100 ng/ml TNF-α, read-out: Cellular activity grade (A549) (Cellular IC50)

Structure (SMILES)	IC50
N#Cc1c(C2CCC(C(=O)O)CC2)cc(-c2ccccc2O)nc1N (stereo not drawn) [Example 1-38]	1000 to 10000 nM
COc1ccc(C[C@H](N)c2cc(-c3ccccc3O)nc(N)c2C#N)cc1 [Example 1-26]	1000 to 10000 nM
N#Cc1c([C@H](Cc2ccccc2)NC(=O)CCN2CCCCC2)cc(-c2ccccc2O)nc1N [Example 1-40]	1000 to 10000 nM
CC(C)[C@H](N)c1cc(-c2ccccc2O)nc(N)c1C#N [Example 1-33]	1000 to 10000 nM
N#Cc1c(C2CCC(N)CC2)cc(-c2ccccc2O)nc1N (stereo not drawn) [Example 1-22]	< 1000 nM
N#Cc1c(CC(N)c2ccccc2)cc(-c2ccccc2O)nc1N (stereo not drawn) [Example 1-35]	1000 to 10000 nM
N#Cc1c(CCO)cc(-c2ccccc2O)nc1N [Example 1-44]	1000 to 10000 nM
Cc1cccc(-c2cc(C3CCCNC3)c(C#N)c(N)n2)c1O (stereo not drawn) [Example 1-17]	1000 to 10000 nM
N#Cc1c(C2CCCCN2)cc(-c2ccccc2O)nc1N (stereo not drawn) [Example 1-14]	1000 to 10000 nM
N#Cc1c([C@@H]2CCCN2)cc(-c2ccccc2O)nc1N [Example 1-31]	1000 to 10000 nM
N#Cc1c([C@@H](N)Cc2ccc(F)cc2)cc(-c2ccccc2O)nc1N [Example 1-30]	1000 to 10000 nM
N#Cc1c(C2CCCN(C(=O)CCN3CCCCC3)C2)cc(-c2ccccc2O)nc1N (stereo not drawn) [Example 1-41]	1000 to 10000 nM
N#Cc1c(C2CCCNC2)cc(-c2ccc(O)cc2O)nc1N (stereo not drawn) [Example 1-18]	1000 to 10000 nM
Cc1cccc(O)c1-c1cc(C2CCCNC2)c(C#N)c(N)n1 (stereo not drawn) [Example 1-21]	1000 to 10000 nM
CCCC[C@H](N)c1cc(-c2ccccc2O)nc(N)c1C#N [Example 1-28]	> 10000 nM
CS(=O)(=O)N1CCCC(c2cc(-c3ccccc3O)nc(N)c2C#N)C1 (stereo not drawn) [Example 1-42]	1000 to 10000 nM
N#Cc1c(C2CCCNC2)cc(-c2cccc(Cl)c2O)nc1N (stereo not drawn) [Example 1-20]	< 1000 nM
N#Cc1c([C@@H](N)Cc2ccccc2)cc(-c2ccccc2O)nc1N [Example 1-25]	1000 to 10000 nM
N#Cc1c([C@H](N)Cc2ccccc2)cc(-c2ccccc2O)nc1N [Example 1-34]	1000 to 10000 nM
N#Cc1c(C2CCCNC2)cc(-c2cccc(F)c2O)nc1N (stereo not drawn) [Example 1-19]	< 1000 nM
CCc1cc(-c2ccccc2O)nc(N)c1C#N [Example 1-39]	> 10000 nM
N#Cc1c([C@@H](N)CCc2ccccc2)cc(-c2ccccc2O)nc1N [Example 1-29]	> 10000 nM
N#Cc1c(C2CNCCN2)cc(-c2ccccc2O)nc1N (stereo not drawn) [Example 1-15]	1000 to 10000 nM
N#Cc1c(C2CCCC(N)C2)cc(-c2ccccc2O)nc1N (stereo not drawn) [Example 1-23]	< 1000 nM
C[C@H](N)c1cc(-c2ccccc2O)nc(N)c1C#N [Example 1-32]	1000 to 10000 nM
N#Cc1c(CCN)cc(-c2ccccc2O)nc1N [Example 1-37]	< 1000 nM

Second part, the molecule after the results:

IC50	Structure (SMILES)
< 1000 nM	O=c1ccc2c(C3CCCNC3)cc(-c3c(O)cccc3OCC3CC3)nc2[nH]1 (stereo not drawn) [Example 25-4, 7-[2-(cyclopropylmethoxy)-6-hydroxyphenyl]-5-(3-piperidinyl)-1,8-naphthyridin-2(1H)-one hydrochloride]
1000 to 10000 nM	N#Cc1c(C2CCCNC2)cc(-c2c(O)cccc2OCCN2CCOCC2)nc1N (stereo not drawn) [Example 2-84]
< 1000 nM	CCCOc1cccc(O)c1-c1cc(C2CCNCC2)c(C#N)c(N)n1 [Example 2-67]
< 1000 nM	N#Cc1c(C2CCNCC2)cc(-c2c(O)cccc2OCC2CCC2)nc1N [Example 2-68]
< 1000 nM	N#Cc1c(C2CCCNC2)cc(-c2c(O)cccc2OCC2CC2)nc1N (stereo not drawn) [Example 2-65]
< 1000 nM	CCCCCOc1cccc(O)c1-c1cc(C2CCNCC2)c(C#N)c(N)n1 [Example 2-69]
1000 to 10000 nM	CN(C)CCOc1cccc(O)c1-c1cc(C2CCCNC2)c(C#N)c(N)n1 (stereo not drawn) [Example 2-85]
< 1000 nM	N#Cc1c(C2CCCNC2)cc(-c2c(O)cccc2OCc2ccc([N+](=O)[O-])cc2)nc1N (stereo not drawn) [Example 2-14]
< 1000 nM	CCOC(=O)C1Cc2c(C3CCCNC3)cc(-c3ccccc3O)nc2NC1=O (stereo not drawn) [Example 26-1, ethyl 7-(2-hydroxyphenyl)-2-oxo-5-(3-piperidinyl)-1,2,3,4-tetrahydro-1,8-naphthyridine-3-carboxylate]
< 1000 nM	CCOC(=O)N1Cc2c(C3CCCNC3)cc(-c3c(O)cccc3OCC3CC3)nc2NC1=O (stereo not drawn) [Example 24-2, ethyl 7-[2-(cyclopropylmethoxy)-6-hydroxyphenyl]-2-oxo-5-(3-piperidinyl)-1,4-dihydropyrido[2,3-d]pyrimidine-3(2H)-carboxylate hydrochloride]
< 1000 nM	O=C1Nc2nc(-c3c(O)cccc3OCC3CC3)cc(C3CCCNC3)c2CN1C(=O)NC1CCCCC1 (stereo not drawn) [Example 24-3, N-cyclohexyl-7-[2-(cyclopropylmethoxy)-6-hydroxyphenyl]-2-oxo-5-(3-piperidinyl)-1,4-dihydropyrido[2,3-d]pyrimidine-3(2H)-carboxamide hydrochloride]
1000 to 10000 nM	N#Cc1c(C2CCCNC2)cc(-c2c(O)cccc2OCc2cccc(C(F)(F)F)c2)nc1N (stereo not drawn) [Example 2-09]
< 1000 nM	N#Cc1c(C2CCCNC2)cc(-c2c(O)cccc2OCc2ccc(Cl)cc2)nc1N (stereo not drawn) [Example 2-19]
< 1000 nM	CC(C)(C)C(=O)COc1cccc(O)c1-c1cc(C2CCCNC2)c(C#N)c(N)n1 (stereo not drawn) [Example 2-77]
< 1000 nM	Cc1ccc(COc2cccc(O)c2-c2cc(C3CCCNC3)c(C#N)c(N)n2)cc1 (stereo not drawn) [Example 2-08]
1000 to 10000 nM	N#Cc1c(C2CCCNC2)cc(-c2c(O)cccc2OCc2cccc([N+](=O)[O-])c2)nc1N (stereo not drawn) [Example 2-13]
1000 to 10000 nM	Cc1cccc(COc2cccc(O)c2-c2cc(C3CCCNC3)c(C#N)c(N)n2)c1 (stereo not drawn) [Example 2-07]
< 1000 nM	N#Cc1c(C2CCNCC2)cc(-c2c(O)cccc2OCCC2CCCCC2)nc1N [Example 2-70]
1000 to 10000 nM	N#Cc1c(C2CCCNC2)cc(-c2c(O)cccc2OCc2cccc(Br)c2)nc1N (stereo not drawn) [Example 2-11]
1000 to 10000 nM	N#Cc1c(C2CCCNC2)cc(-c2c(O)cccc2OCc2ccccc2Cl)nc1N (stereo not drawn) [Example 2-17]
< 1000 nM	N#Cc1c(C2CCCNC2)cc(-c2c(O)cccc2OCC2CCC2)nc1N (stereo not drawn) [Example 2-62]
< 1000 nM	O=c1[nH]c2nc(-c3c(O)cccc3OCC3CC3)cc(C3CCCNC3)c2cc1F (stereo not drawn) [Example 25-2, 7-[2-(cyclopropylmethoxy)-6-hydroxyphenyl]-3-fluoro-5-(3-piperidinyl)-1,8-naphthyridin-2(1H)-one hydrochloride]

IC50	Structure (SMILES)
1000 to 10000 nM	N#Cc1c(C2CCCNC2)cc(-c2c(O)cccc2OCCN2CCCC2)nc1N (stereo not drawn) [Example 2-87]
< 1000 nM	CCCCCCOc1cccc(O)c1-c1cc(C2CCNCC2)c(C#N)c(N)n1 [Example 2-76]
1000 to 10000 nM	N#Cc1c(C2CCCNC2)cc(-c2c(O)cccc2OCc2ccc(C(F)(F)F)cc2)nc1N (stereo not drawn) [Example 2-10]
< 1000 nM	N#Cc1c(C2CCCNC2)cc(-c2c(O)cccc2OCC2CCCCO2)nc1N (stereo not drawn) [Example 2-79]
< 1000 nM	N#Cc1ccc(COc2cccc(O)c2-c2cc(C3CCCNC3)c(C#N)c(N)n2)cc1 (stereo not drawn) [Example 2-16]
1000 to 10000 nM	CCOC(=O)c1cc2c(C3CCCNC3)cc(-c3ccccc3O)nc2[nH]c1=O (stereo not drawn) [Example 25-1, ethyl 7-(2-hydroxyphenyl)-2-oxo-5-(3-piperidinyl)-1,2-dihydro-1,8-naphthyridine-3-carboxylate hydrochloride]
< 1000 nM	NC(=O)C1Cc2c(C3CCNCC3)cc(-c3c(O)cccc3OCC3CC3)nc2NC1=O (stereo not drawn) [Example 26-2, 7-[2-(cyclopropylmethoxy)-6-hydroxyphenyl]-2-oxo-5-(4-piperidinyl)-1,2,3,4-tetrahydro-1,8-naphthyridine-3-carboxamide hydrochloride]
1000 to 10000 nM	N#Cc1c(C2CCCNC2)cc(-c2c(O)cccc2OCCN2CCCCC2)nc1N (stereo not drawn) [Example 2-83]
< 1000 nM	CCCCCCCOc1cccc(O)c1-c1cc(C2CCNCC2)c(C#N)c(N)n1 [Example 2-73]
1000 to 10000 nM	CCCCCCCOc1cccc(O)c1-c1cc(C2CCCNC2)c(C#N)c(N)n1 (stereo not drawn) [Example 2-64]
< 1000 nM	N#Cc1c(C2CCCNC2)cc(-c2c(O)cccc2OCC2CCCO2)nc1N (stereo not drawn) [Example 2-80]
< 1000 nM	N#Cc1c(C2CCCNC2)cc(-c2c(O)cccc2OCCC2CCCCC2)nc1N (stereo not drawn) [Example 2-61]
< 1000 nM	N#Cc1c(C2CCNCC2)cc(-c2c(O)cccc2OCC2CCCO2)nc1N (stereo not drawn) [Example 2-82]
< 1000 nM	N#Cc1cccc(COc2cccc(O)c2-c2cc(C3CCCNC3)c(C#N)c(N)n2)c1 (stereo not drawn) [Example 2-15]
1000 to 10000 nM	N#Cc1c(C2CCCNC2)cc(-c2c(O)cccc2OCc2c(Cl)cccc2Cl)nc1N (stereo not drawn) [Example 2-20]
< 1000 nM	CC(C)CCCOc1cccc(O)c1-c1cc(C2CCCNC2)c(C#N)c(N)n1 (stereo not drawn) [Example 2-63]
< 1000 nM	CC(C)CCCOc1cccc(O)c1-c1cc(C2CCNCC2)c(C#N)c(N)n1 [Example 2-66]
1000 to 10000 nM	NC(=O)c1cc2c(C3CCNCC3)cc(-c3c(O)cccc3OCC3CC3)nc2[nH]c1=O [Example 25-3, 7-[2-(cyclopropylmethoxy)-6-hydroxyphenyl]-2-oxo-5-(4-piperidinyl)-1,2-dihydro-1,8-naphthyridine-3-carboxamide hydrochloride]
1000 to 10000 nM	N#Cc1c(C2CCCNC2)cc(-c2c(O)cccc2OCc2ccccc2[N+](=O)[O-])nc1N (stereo not drawn) [Example 2-12]
< 1000 nM	C=CCOc1cccc(O)c1-c1cc(C2CCNCC2)c(C#N)c(N)n1 [Example 2-74]
1000 to 10000 nM	N#Cc1c(C2CCCNC2)cc(-c2c(O)cccc2OCCN2CCCCCC2)nc1N (stereo not drawn) [Example 2-86]
< 1000 nM	CCOc1cccc(O)c1-c1cc(C2CCNCC2)c(C#N)c(N)n1 [Example 2-75]

Same assay, conditions: Homo sapiens, A549 cells, 100 ng/ml TNF-α, read-out: Cellular activity grade (A549) (Cellular IC50)

Structure (SMILES)	IC50
CC(N)Cc1cc(-c2ccccc2O)nc(N)c1C#N (stereo not drawn) [Example 1-36]	1000 to 10000 nM
